Values joined by “and” are separate entries in the source; they are usually repeats but may differ in a detail not shown here. Equal entries are not always repeated. Where a SMILES comes first, the peptide text is derived from it. Where no end group is shown, it is not given here. The star is where a group is joined. Ela = elaidoyl, CCCCCCCC/C=C/CCCCCCCC(=O)*; Palmitoyl = CCCCCCCCCCCCCCCC(=O)*
Experiments:
Type in all cases: cell-based
[1] = system: Normal Human Dermal Fibroblasts (NHDF); assay: Survival estimated on cell layer using a fluorescent probe; details: 3 days of incubation
Description: (§1) Principle of the study: Normal Human Dermal Fibroblasts (NHDF) were cultivated in an appropriate culture medium (i.e. complete DMEM with fetal calf serum). After cell anchorage, cell layers were rinsed with saline buffer and contact with molecules to be tested were performed in a complete DMEM without fetal calf serum. This medium contained ascorbate (sodium salt) and beta-aminopropionitrile, monofumarate. After 3 days of incubation, supernatants were collected and frozen. Survival was estimated on cell layer using a fluorescent probe. Collagen I was estimated using an original direct ELISA method, Fibronectin and Collagen IV were estimated using ELISA commercial kits.

[2] = system: Collagen I synthesis, Normal Human Dermal Fibroblasts (NHDF); assay: Collagen I synthesis by NHDF, direct ELISA on supernatants after 3 days; details: for Variation of Collagen I synthesis (mean, in % of negative control): NHDF, 3 days; for Collagen I synthesis, result in words: vs negative control
Description: (§2) Products: Pal-KTFK (SEQ ID NO: 7), Ela-KTAK (SEQ ID NO: 9) and Ela-KTFK (SEQ ID No: 8) were tested from 2 to 6 ppm, and Pal-KAvaK was tested from 1 to 4 ppm. Solvent=DMSO 0.08%. TGF-beta1 10^−6%, was the positive control for collagen I and fibronectin studies.
as §1
(§3) Results: Statistical analysis were performed on Collagen I data (n=5/assay) or fibronectin data (n=5/assay) or Collagen IV data (n=5/assay). Results obtained with molecules were compared to negative control. All data are in ng/10E6 cells. A Student t test for non paired values was used; significativity was obtained if p<0.05 or p<0.01.

[3] = system: Fibronectin synthesis, Normal Human Dermal Fibroblasts (NHDF); assay: Fibronectin synthesis by NHDF, commercial ELISA kit on supernatants after 3 days; details: for Variation of Fibronectin synthesis (mean, in % of negative control): NHDF, 3 days; for Fibronectin synthesis, result in words: vs negative control
Description: as §2, §1, §3

[4] = system: Collagen IV synthesis, Normal Human Dermal Fibroblasts (NHDF); assay: Collagen IV synthesis by NHDF, commercial ELISA kit on supernatants after 3 days; details: for Variation of Collagen IV synthesis (mean, in % of negative control): NHDF, 3 days
Description: as §2, §1, §3

[5] = positive control, TGF-beta1 10^−6% (10 ppb)

Compound	Variation of Collagen I synthesis (mean, in % of negative control) ([2]; 2 ppm)	Variation of Collagen I synthesis (mean, in % of negative control) ([2]; 4 ppm)	Variation of Collagen I synthesis (mean, in % of negative control) ([2]; 6 ppm)	Collagen I synthesis, result in words ([2]; 6 ppm)	Variation of Fibronectin synthesis (mean, in % of negative control) ([3]; 2 ppm)	Variation of Fibronectin synthesis (mean, in % of negative control) ([3]; 4 ppm)	Fibronectin synthesis, result in words ([3]; 4 ppm)	Variation of Fibronectin synthesis (mean, in % of negative control) ([3]; 6 ppm)	Variation of Collagen IV synthesis (mean, in % of negative control) ([4]; 2 ppm)	Variation of Collagen IV synthesis (mean, in % of negative control) ([4]; 4 ppm)	further results
CCCCCCCCCCCCCCCC(=O)N[C@@H](CCCCN)C(=O)N[C@H](C(=O)N[C@@H](Cc1ccccc1)C(=O)N[C@@H](CCCCN)C(=O)O)[C@@H](C)O [Pal-KTFK, Pal-Lys-Thr-Phe-Lys] (Palmitoyl-KTFK-OH)	–	–	–	–	–	–	–	–	–	–	maximal concentration accepted by the cells [1]: ~6 ppm
Ela-Lys-Thr-Ala-Lys (Ela-KTAK) [N-elaidoyl tetrapeptide Lys-Thr-Ala-Lys]	6%	18%	45%	increase	16%	32%	increase	31%	–	–	–
Ela-Lys-Thr-Phe-Lys (Ela-KTFK) [N-elaidoyl tetrapeptide Lys-Thr-Phe-Lys]	6%	19%	49%	significant increase	10%	25%	–	42%	10%	7%	Fibronectin synthesis, result in words ([3]; 6 ppm): significant increase; Variation of Collagen IV synthesis (mean, in % of negative control) ([4]; 6 ppm): 7%
Pal-Lys-Ava-Lys [Pal-KAvaK]	14%	49%	–	–	15%	54%	increase	–	9%	23%	Variation of Collagen I synthesis (mean, in % of negative control) ([2]; 1 ppm): 1%; Collagen I synthesis, result in words ([2]; 4 ppm): increase; Variation of Fibronectin synthesis (mean, in % of negative control) ([3]; 1 ppm): 14%; Variation of Collagen IV synthesis (mean, in % of negative control) ([4]; 1 ppm): 8%; Collagen IV synthesis, result in words ([4]; 4 ppm, vs negative control): increase
TGF-beta: TGF-beta1 10^−6%, the positive control for collagen I and fibronectin studies [reference compound]	–	–	–	–	–	–	–	–	–	–	Collagen I synthesis, result in words [2, 5]: significant increase; Variation of Fibronectin synthesis (mean, in % of negative control) ([3]; 10 ppb): 124% and 85% and 87%; Fibronectin synthesis, result in words [3, 5]: significant increase; Variation of Collagen IV synthesis (mean, in % of negative control) ([4]; 10 ppb): 12%

— patent US8404648B2, “Polypeptides KXK and their use” (Sederma, priority 2006, dated 2013)
